Laboratory results: patent publication US7816323B2, “Methods of using corticotropin-releasing factor for the use of the treatment of cancer” (priority 2008, dated 2010)

How the values were obtained:
[1] = system: peritumoral edema; settings: patients with peritumoral edema; cited from earlier work
[2] = system: human glioblastoma cell line U87 Flue; experiment: Brain tumor-bearing SCID mice (U87 Flue glioblastoma), 80-day survival and tumor progression study
Source text: The U87 Flue cell line was created by stably transducing U87 cells with a lentiviral construct containing the luc gene.

[3] = system: malignant brain tumor; experiment: Clinical study of CRF in patients with malignant brain tumor (tumor size by MRI, survival); assay type: in vivo, human
Procedure: Patients with malignant brain tumor were treated with 2 mg/day (1 mg dose, twice daily) of either human CRF subcutaneously. […] Additionally, of the 30 patients who had received treatment for at least 6 months, 10 experienced a decrease in tumor size.

[4] = high dose of CRF, 80-day study period

corticorelin acetate
exposure to dexamethasone [1]: reduced exposure to dexamethasone
steroid-related side effects [1]: improvement in steroid-related side effects

O=NN(CCCl)C(=O)NCCCl [BiCNU, reference compound]
brain tumor growth / response to treatment (photon emission) ([2]; chemotherapeutic agents, TMZ: all mice but one): continued to grow

CRF: endogenous 41 amino acid peptide, the major hypothalamic hormone responsible for stimulation of the pituitary-adrenal axis
patients exhibiting a reduction in tumor size of around 90% ([3]; FIG. 2 patients, 2 mg/day s.c.): two
survival of some patients after CRF treatment ([3]; FIGS. 1 and 2): 1-2 years
survival of the overwhelming majority of patients ([3]; FIGS. 1 and 2, projected survival 3-6 months): live well beyond the projected 3-6 months
metastatic patients exhibiting survival beyond the projected 3-6 months ([3]; of the 3 metastatic patients in FIG. 3): 3 patients
metastatic patients showing a reduction in tumor size at the last timepoint measured ([3]; of the 3 metastatic patients in FIG. 3, 2 mg/day s.c.): 2 patients
patients exhibiting a reduction in tumor size at the last time point measured ([3]; of the 10 patients in FIG. 2, 2 mg/day s.c.): 8 patients
patients exhibiting a maintenance in tumor size ([3]; of the 20 patients in FIG. 1, 2 mg/day s.c.): 5 patients
patients exhibiting a reduction in tumor size ([3]; of the 20 patients in FIG. 1, 2 mg/day s.c. (1 mg twice daily)): 6 patients
patients exhibiting a reduction in tumor size by over 50% ([3]; of the 20 patients in FIG. 1, after 9 months of treatment, 2 mg/day s.c.): 3 patients
patients experiencing a decrease in tumor size ([3]; of the 30 patients treated for at least 6 months): 10 patients
survival over the 80-day study period ([2]; high dose of CRF, 100 μg/kg s.c. twice daily, all mice): survived the entire 80-day study period
brain tumor progression (luminescence imaging) [2, 4]: did not progress during the 80-day study period
health appearance of the mice during the study [2, 4]: appeared healthy throughout
brain tumor progression (luminescence imaging) ([2]; low dose of CRF): did not progress or progressed more slowly
mean survival time ([2]; low dose of CRF): between mice, that were administered a high dose of CRF, and mice that had received no treatment or were administered dexamethasone
mice still alive at the end of the 80-day study period ([2]; low dose of CRF): 60%

Cn1nnc2c(C(N)=O)ncn2c1=O [TMZ, reference compound]
mice still alive at the end of the 80-day study period ([2]; TMZ-treated mice): 40%
